Where two headings read alike, the source gives them in different places.
Experiments:
liver = conditions: cited from earlier work
[1] = clinically observed, human plasma; cited from earlier work
in vitro liver tissue = experiment: mitochondrial stress test: on-chip oxygen consumption rate (OCR) of liver tissue; assay type: cell-based, human; conditions: oligomycin 1 μM, FCCP 0.3 μM, rotenone 1 μM with antimycin A 0.5 μM, 30 min each; matured tissue on chip
Source text: The microfluidic chip 100 and control system perform measurements of the oxygen consumption rate of in vitro liver tissue as a readout of mitochondrial function.
Oxygen sensing is achieved by combining a disposable oxygen sensor spot with an oxygen sensing meter. The meter provides an optical excitation signal to the sensor spot and measures the emitted light from the sensor spot. The light emitted by the sensor spot is influenced by a partial pressure of oxygen in fluid in contact with the sensor spot. Two sensor spots are placed in the primary flow path either side of the tissue culture area to measure the oxygen consumption of the tissue. The meters in the control module are placed such that they can measure the oxygen sensor values during normal operation.
The microfluidic chip 100 performs quantification of cellular respiration to assess mitochondrial function. […] To assess the sensitivity of the oxygen sensors 124a-b and on-chip OCR estimates, the microfluidic chip 100 performs a mitochondrial stress test. After cells are seeded on chips (e.g., 4 per treatment), tissue is matured (˜5-7 days), and basal OCR is established, oligomycin (1 μM & 30 min), which blocks proton translocation through complex V and represses ATP and OCR, are administered to the chips and OCR are assessed continuously. […] The oxygen sensors 124a-b read oxygen levels on the fluid path before and after the cell chamber. The inlet readout represents oxygenated media levels leaving the reoxygenation channel and the outlet readout reflects oxygen-depleted media due oxygen consumption of liver tissue. The continuous readouts are captured and recorded by the controller 114 of the microfluidic chip 100.

[2] = less toxic comparator of Table 1

Compound	DILI presentation (Liver toxicant) (liver; liver toxicant of Table 1)	Mechanism of toxicity (liver; liver toxicant of Table 1)	other results
COC(c1ccccc1)(c1ccccc1)[C@H](Oc1nc(C)cc(C)n1)C(=O)O [Ambrisentan]	–	–	DILI presentation (Less toxic comparator) (liver; [2]): Minimal
C=C[C@@H]1C[C@]1(NC(=O)[C@@H]1C[C@@H](Oc2ncc(OC)c3ccc(Cl)cc23)CN1C(=O)[C@@H](NC(=O)OC(C)(C)C)C(C)(C)C)C(=O)NS(=O)(=O)C1CC1 [Asunaprevir]	ALT elevations	–	–
O=C1CC2(CCCC2)CC(=O)N1CCCCN1CCN(c2ncccn2)CC1 [Buspirone]	–	–	Comparator characteristic (liver; BSEP / mitochondrial toxicity relative to the paired liver toxicant): Less BSEP; DILI presentation (Less toxic comparator) (liver; [2]): No/low
CN1CCN(C2=Nc3cc(Cl)ccc3Nc3ccccc32)CC1 [Clozapine]	–	Reactive	–
O=C(O)Cc1ccccc1Nc1c(Cl)cccc1Cl [Diclofenac]	–	–	Cmax [1]: 4 to 10 µM
CCN(CC)C(=O)/C(C#N)=C/c1cc(O)c(O)c([N+](=O)[O-])c1 [Entacapone]	–	–	DILI presentation (Less toxic comparator) (liver; [2]): Low DILI
O=c1[nH]c(=O)n(C2OC(CO)C(O)C2F)cc1I (stereo not shown) [FIRU]	–	–	DILI presentation (Less toxic comparator) (liver; in vivo): No DILI
O=c1[nH]c(=O)n([C@@H]2O[C@H](CO)[C@@H](O)[C@@H]2F)cc1I [Fialuridine]	Liver failure	Mitochondrial	–
CCc1nn(CCCN2CCN(c3cccc(Cl)c3)CC2)c(=O)n1CCOc1ccccc1 [Nefazodone]	Liver failure	Reactive	–
Cc1cc2c(s1)Nc1ccccc1N=C2N1CCN(C)CC1 [Olanzapine]	–	–	DILI presentation (Less toxic comparator) (liver; [2]): No DILI
CCc1ccc(CCOc2ccc(CC3SC(=O)NC3=O)cc2)nc1 (stereo not shown) [Pioglitazone]	–	–	DILI presentation (Less toxic comparator) (liver; [2]): Low DILI
C=C(C)[C@H]1Cc2c(ccc3c2O[C@@H]2COc4cc(OC)c(OC)cc4[C@@H]2C3=O)O1 [Rotenone, rotenone]	–	–	OCR (oxygen consumption rate) (in vitro liver tissue): complete reduction in OCR
Cc1cc2c(cc1CC(=O)c1sccc1S(=O)(=O)Nc1onc(C)c1Cl)OCO2 [Sitaxsentan]	ALT elevations	Reactive	–
CC[C@H]1OC(=O)[C@H](C)C(=O)[C@H](C)[C@@H](O[C@@H]2O[C@H](C)C[C@H](N(C)C)[C@H]2O)[C@](C)(OC)C[C@@H](C)C(=O)[C@H](C)[C@H]2N(CCCCn3cnc(-c4cccnc4)c3)C(=O)O[C@]12C [Telithromycin]	ALT elevations	Bile acid	–
Cc1ccc(C(=O)c2cc(O)c(O)c([N+](=O)[O-])c2)cc1 [Tolcapone]	ALT elevations;	Reactive	–
Cc1c(C)c2c(c(C)c1O)CCC(C)(COc1ccc(CC3SC(=O)NC3=O)cc1)O2 (stereo not shown) [Troglitazone]	ALT, bilirubin	Reactive	–
N[C@@H]1[C@H]2CN(c3nc4c(cc3F)c(=O)c(C(=O)O)cn4-c3ccc(F)cc3F)C[C@@H]12 [Trovafloxacin]	–	Immune-	DILI presentation (Liver toxicant) (liver; in vivo): Acute liver
CC(c1cc2ccccc2s1)N(O)C(N)=O (stereo not shown) [Zileuton]	ALT elevations	Reactive	–
CC[C@H]1/C=C/C=C/C[C@@H](C)[C@H](O)[C@@](C)(O)C(=O)[C@@H](C)[C@H](O)[C@@H](C)C(=O)[C@@H](C)[C@H](O)[C@@H](C)/C=C/C(=O)O[C@@H]2[C@H](C)[C@H](CC1)O[C@]1(CC[C@H](C)[C@H](C[C@@H](C)O)O1)[C@H]2C [oligomycin]	–	–	OCR (oxygen consumption rate) (in vitro liver tissue): decreased OCR values, but non-zero values
FCCP	–	–	OCR (oxygen consumption rate) (in vitro liver tissue): increases OCR to its maximum level
Mipomersen	–	–	DILI presentation (Liver toxicant) (liver; in vivo): ALT elevations; Mechanism of toxicity (liver; in vivo): Lipid

Source: patent US20240228927A1, “MICROFLUIDIC PLATFORM FOR DETECTION OF LIVER INJURY” (Javelin Biotech, Inc., priority 2023, published 2024)
